Measured values as given in ChEMBL document CHEMBL5150004, “Targeting Rearranged during Transfection in Cancer: A Perspective on Small-Molecule Inhibitors and Their Clinical Development” (J Med Chem, 2021).

Experiments:
[1] = Inhibition of p38 (unknown origin); parameters: species or system Homo sapiens
[2] = biological target: Proto-oncogene tyrosine-protein kinase receptor Ret (Homo sapiens) (UniProt P07949); details: NIH3T3
[3] = Inhibition of RET V804M (unknown origin); parameters: species or system Homo sapiens
[4] = Inhibition of human recombinant RET Y719F using Biotin-EGPWLEEEEEAYGWMDF as substrate by TR-FRET assay
NB1 = experiment: cells; details: Homo sapiens
[5] = Inhibition of RET G810R (unknown origin); parameters: species or system Homo sapiens
[6] = Inhibition of recombinant RET V804M (unknown origin) incubated for 120 mins by Perkin Elmer electrophoretic mobility shift platform method; parameters: species or system Homo sapiens
[7] = biological target: Vascular endothelial growth factor receptor 2 (Homo sapiens, UniProt P35968); experiment: Inhibition of recombinant VEGFR2 (unknown origin) incubated for 120 mins by Perkin Elmer electrophoretic mobility shift platform method
Chain of Vascular endothelial growth factor receptor 2 (P35968 whole entry): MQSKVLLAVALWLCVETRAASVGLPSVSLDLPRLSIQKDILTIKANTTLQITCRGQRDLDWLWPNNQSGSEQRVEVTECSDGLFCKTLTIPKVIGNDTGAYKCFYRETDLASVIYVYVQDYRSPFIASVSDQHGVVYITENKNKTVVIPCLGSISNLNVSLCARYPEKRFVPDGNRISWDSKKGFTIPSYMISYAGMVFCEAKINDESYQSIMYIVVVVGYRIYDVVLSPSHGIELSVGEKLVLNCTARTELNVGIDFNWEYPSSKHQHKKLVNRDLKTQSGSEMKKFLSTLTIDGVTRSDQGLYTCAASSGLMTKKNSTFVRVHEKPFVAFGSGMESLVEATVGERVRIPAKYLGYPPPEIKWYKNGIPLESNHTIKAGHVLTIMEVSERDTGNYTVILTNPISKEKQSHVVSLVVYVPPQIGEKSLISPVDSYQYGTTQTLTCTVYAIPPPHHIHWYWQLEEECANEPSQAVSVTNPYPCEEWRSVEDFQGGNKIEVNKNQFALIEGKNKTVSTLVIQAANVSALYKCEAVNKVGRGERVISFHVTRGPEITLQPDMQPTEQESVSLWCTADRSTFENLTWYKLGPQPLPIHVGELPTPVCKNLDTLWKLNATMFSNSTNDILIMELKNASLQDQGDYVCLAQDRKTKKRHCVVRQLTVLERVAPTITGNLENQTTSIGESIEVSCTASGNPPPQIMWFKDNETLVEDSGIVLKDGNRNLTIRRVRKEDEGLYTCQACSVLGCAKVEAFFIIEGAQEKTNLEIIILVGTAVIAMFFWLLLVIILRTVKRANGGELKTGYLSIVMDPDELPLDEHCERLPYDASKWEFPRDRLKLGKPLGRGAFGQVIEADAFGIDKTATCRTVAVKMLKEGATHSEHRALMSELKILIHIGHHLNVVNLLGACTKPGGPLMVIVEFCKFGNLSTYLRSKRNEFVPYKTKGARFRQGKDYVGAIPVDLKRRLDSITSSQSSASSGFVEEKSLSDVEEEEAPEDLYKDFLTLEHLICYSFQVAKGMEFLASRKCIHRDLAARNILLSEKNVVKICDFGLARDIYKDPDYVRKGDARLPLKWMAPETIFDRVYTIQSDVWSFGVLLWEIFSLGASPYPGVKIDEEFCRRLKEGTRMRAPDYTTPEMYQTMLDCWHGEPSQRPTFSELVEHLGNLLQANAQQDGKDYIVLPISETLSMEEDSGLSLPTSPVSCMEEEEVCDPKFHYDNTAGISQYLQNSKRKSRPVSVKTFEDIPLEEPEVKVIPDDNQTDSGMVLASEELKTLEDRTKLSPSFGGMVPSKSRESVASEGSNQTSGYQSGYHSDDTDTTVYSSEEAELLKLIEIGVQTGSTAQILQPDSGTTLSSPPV

LNCaP = experiment: Cytotoxicity against human LNCaP cells expressing BRAF incubated for 72 hrs by celltitre blue assay; type: functional
A-431 = experiment: Cytotoxicity against human A-431 cells expressing C-KIT incubated for 72 hrs by celltitre blue assay; type: functional
[8] = biological target: T1, Tyrosine-protein kinase ABL1 (Homo sapiens, UniProt P00519); experiment: Inhibition of ABL (unknown origin) by kinomescan assay
T1 sequence (P00519 whole entry): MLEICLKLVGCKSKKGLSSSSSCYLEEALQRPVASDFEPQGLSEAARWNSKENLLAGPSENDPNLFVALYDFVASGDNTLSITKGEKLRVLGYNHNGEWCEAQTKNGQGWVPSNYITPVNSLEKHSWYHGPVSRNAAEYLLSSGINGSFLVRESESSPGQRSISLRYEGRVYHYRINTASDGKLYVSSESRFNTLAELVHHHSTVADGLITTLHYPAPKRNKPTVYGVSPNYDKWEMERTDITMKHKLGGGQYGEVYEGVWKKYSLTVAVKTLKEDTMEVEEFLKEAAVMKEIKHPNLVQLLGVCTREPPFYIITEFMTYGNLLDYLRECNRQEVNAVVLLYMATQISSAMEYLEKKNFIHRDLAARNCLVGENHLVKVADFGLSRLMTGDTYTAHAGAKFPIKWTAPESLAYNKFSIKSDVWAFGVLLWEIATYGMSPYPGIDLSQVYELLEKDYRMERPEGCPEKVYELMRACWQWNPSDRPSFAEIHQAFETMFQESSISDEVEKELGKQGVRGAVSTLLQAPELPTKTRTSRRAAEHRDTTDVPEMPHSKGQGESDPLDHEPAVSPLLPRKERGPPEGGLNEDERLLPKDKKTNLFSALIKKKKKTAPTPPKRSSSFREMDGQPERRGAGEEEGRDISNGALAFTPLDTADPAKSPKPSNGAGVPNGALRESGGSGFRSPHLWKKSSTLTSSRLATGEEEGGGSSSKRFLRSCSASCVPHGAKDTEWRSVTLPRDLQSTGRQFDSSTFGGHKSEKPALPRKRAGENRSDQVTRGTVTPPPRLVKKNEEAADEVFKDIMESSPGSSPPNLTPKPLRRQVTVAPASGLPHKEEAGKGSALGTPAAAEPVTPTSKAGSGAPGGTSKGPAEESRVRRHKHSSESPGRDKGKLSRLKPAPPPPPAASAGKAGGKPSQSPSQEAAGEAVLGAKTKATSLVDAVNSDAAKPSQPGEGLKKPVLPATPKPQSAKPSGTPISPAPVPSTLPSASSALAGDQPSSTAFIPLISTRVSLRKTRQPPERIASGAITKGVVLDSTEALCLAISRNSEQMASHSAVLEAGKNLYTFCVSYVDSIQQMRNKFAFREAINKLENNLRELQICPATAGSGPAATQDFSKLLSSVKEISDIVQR

[9] = Cytotoxicity against human TT-1 cells expressing RET incubated for 72 hrs by celltitre blue assay; type: functional
[10] = biological target: T1, Tyrosine-protein kinase ABL1; experiment: Binding affinity to ABL (unknown origin) assessed as dissociation constant measured by ambit kinomescan assay
[11] = Cytotoxicity against HUVEC expressing FLT-1 incubated for 72 hrs by celltitre blue assay; type: toxicity, cell-based; details: human
[12] = Cytotoxicity against HUVEC expressing VEGFR2 incubated for 72 hrs by celltitre blue assay; type: toxicity, cell-based; details: human
A-375 = experiment: Cytotoxicity against human A-375 cells expressing BRAF V600E mutant incubated for 72 hrs by celltitre blue assay; type: functional
[13] = biological target: RAF proto-oncogene serine/threonine-protein kinase (Homo sapiens, UniProt P04049); experiment: Inhibition of CRAF (unknown origin) by kinomescan assay
Chain of RAF proto-oncogene serine/threonine-protein kinase (P04049 whole entry): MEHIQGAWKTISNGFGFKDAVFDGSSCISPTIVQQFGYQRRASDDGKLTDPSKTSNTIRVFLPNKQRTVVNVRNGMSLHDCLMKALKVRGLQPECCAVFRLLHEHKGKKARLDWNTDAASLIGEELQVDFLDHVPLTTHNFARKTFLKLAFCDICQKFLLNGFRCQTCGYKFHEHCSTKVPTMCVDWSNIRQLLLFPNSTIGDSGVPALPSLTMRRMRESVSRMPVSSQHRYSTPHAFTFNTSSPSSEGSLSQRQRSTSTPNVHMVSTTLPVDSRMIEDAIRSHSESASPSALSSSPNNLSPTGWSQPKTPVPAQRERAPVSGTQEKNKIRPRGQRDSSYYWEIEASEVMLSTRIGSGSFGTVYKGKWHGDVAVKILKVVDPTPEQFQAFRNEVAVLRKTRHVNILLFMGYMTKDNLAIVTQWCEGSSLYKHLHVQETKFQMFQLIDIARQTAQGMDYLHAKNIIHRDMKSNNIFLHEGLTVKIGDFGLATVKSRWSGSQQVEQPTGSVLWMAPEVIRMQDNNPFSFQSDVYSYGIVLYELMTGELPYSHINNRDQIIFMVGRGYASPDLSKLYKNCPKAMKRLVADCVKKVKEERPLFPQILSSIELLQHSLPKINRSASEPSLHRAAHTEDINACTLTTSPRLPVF

COLO 205 = experiment: Cytotoxicity against human COLO 205 cells expressing BRAF V600E mutant incubated for 72 hrs by celltitre blue assay; type: functional
[14] = Inhibition of C-KIT (unknown origin) by kinomescan assay; parameters: species or system Homo sapiens
Hs-578T = experiment: Cytotoxicity against human Hs-578T cells expressing BRAF incubated for 72 hrs by celltitre blue assay; type: functional
K562 = experiment: Cytotoxicity against human K562 cells expressing BCR-ABL incubated for 72 hrs by celltitre blue assay; type: functional
HeLa = experiment: Cytotoxicity against human HeLa cells expressing CRAF incubated for 72 hrs by celltitre blue assay; type: functional

Chain of Proto-oncogene tyrosine-protein kinase receptor Ret (Homo sapiens) (P07949 whole entry): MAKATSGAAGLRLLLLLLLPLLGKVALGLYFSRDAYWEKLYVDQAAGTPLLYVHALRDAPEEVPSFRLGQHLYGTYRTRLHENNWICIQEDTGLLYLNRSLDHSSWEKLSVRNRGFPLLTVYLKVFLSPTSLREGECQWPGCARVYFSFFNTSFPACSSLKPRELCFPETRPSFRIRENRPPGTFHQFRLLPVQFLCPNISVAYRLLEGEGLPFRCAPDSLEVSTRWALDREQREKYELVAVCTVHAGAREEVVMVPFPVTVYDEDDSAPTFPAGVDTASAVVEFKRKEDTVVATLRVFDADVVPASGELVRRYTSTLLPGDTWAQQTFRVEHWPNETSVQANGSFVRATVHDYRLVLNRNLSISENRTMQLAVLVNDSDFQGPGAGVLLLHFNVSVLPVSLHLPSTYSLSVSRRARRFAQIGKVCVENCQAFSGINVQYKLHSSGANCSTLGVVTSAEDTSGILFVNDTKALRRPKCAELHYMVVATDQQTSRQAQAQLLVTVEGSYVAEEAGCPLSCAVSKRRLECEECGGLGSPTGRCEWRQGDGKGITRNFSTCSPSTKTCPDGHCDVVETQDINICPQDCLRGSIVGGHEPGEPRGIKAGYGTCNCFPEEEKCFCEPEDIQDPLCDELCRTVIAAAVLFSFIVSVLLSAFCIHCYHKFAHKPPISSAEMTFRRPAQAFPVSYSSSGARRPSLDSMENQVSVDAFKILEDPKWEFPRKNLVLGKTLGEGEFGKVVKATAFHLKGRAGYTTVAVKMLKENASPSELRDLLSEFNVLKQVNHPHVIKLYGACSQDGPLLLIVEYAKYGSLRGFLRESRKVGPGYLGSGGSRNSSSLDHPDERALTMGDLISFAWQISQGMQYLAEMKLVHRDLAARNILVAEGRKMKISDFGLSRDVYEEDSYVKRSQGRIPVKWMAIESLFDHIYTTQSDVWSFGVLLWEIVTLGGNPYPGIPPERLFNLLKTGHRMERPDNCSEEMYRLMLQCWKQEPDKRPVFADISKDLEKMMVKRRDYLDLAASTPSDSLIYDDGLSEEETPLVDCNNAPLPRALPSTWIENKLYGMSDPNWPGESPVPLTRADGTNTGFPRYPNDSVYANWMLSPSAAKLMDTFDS

Compound: CNC(=O)c1cc(Oc2ccc(NC(=O)Nc3ccc(Cl)c(C(F)(F)F)c3)cc2)ccn1 [SORAFENIB]
- IC50 [1]: 38 nM
- GI50 [2]: 47 nM
- IC50 [3]: 7.9 nM

Compound: CCc1cc2c(cc1N1CCC(N3CCOCC3)CC1)C(C)(C)c1[nH]c3cc(C#N)ccc3c1C2=O [ALECTINIB]
- IC50 [4]: 14 nM
- IC50 (NB1): 4.5 nM

Compound: C[C@H]1CNC(=O)c2cnn3cc4c(nc23)N(Cc2cc(F)cnc2O1)[C@@H]1CCC[C@@H]1O4 [ENBEZOTINIB]
- IC50 [5]: 17 nM

Compound: COc1ccc(CN2C3CC2CN(c2ccc(-c4cc(OCC(C)(C)O)cn5ncc(C#N)c45)cn2)C3)cn1 [SELPERCATINIB]
- IC50 [6]: 0.8 nM
- IC50 [5]: > 500 nM

Compound: COC1(C(=O)N[C@@H](C)c2ccc(-n3cc(F)cn3)nc2)CCC(c2nc(C)cc(Nc3cc(C)[nH]n3)n2)CC1 (some centres undefined)
- IC50 [5]: > 500 nM
- IC50 [7]: 35 nM

Compound: COc1cc2ncnc(Oc3cccc(NC(=O)Nc4cc(C(C)(C)C(F)(F)F)on4)c3)c2cc1OC [CEP-32496]
- GI50 (LNCaP): 6.63 µM
- GI50 (A-431): 1000 nM
- IC50 [8]: 6 nM
- GI50 [9]: 21 nM
- Kd [10]: 2.8 nM
- GI50 at 72 h [11]: ≥ 1000 nM
- GI50 at 72 h [12]: ≥ 700 nM
- GI50 (A-375): 84 nM
- IC50 [13]: 146 nM
- GI50 (COLO 205): 60 nM
- IC50 [14]: 1 nM
- GI50 (Hs-578T): 2740 nM
- GI50 (K562): 70 nM
- GI50 (HeLa): ≥ 3000 nM
